We go through seven compounds from patent US8431593B2, “Heteroaryl amide derivatives” (H. Lundbeck A/S, priority 2006, dated 2013).

pIC50: −log10 of the molar value. Bounds are passed on as bounds.

This assay has as its target T1, P2X7 receptor (Homo sapiens, UniProt Q99572).
T1 construct: host or cells: SH-SY5Y
T1 sequence (Q99572 1-595): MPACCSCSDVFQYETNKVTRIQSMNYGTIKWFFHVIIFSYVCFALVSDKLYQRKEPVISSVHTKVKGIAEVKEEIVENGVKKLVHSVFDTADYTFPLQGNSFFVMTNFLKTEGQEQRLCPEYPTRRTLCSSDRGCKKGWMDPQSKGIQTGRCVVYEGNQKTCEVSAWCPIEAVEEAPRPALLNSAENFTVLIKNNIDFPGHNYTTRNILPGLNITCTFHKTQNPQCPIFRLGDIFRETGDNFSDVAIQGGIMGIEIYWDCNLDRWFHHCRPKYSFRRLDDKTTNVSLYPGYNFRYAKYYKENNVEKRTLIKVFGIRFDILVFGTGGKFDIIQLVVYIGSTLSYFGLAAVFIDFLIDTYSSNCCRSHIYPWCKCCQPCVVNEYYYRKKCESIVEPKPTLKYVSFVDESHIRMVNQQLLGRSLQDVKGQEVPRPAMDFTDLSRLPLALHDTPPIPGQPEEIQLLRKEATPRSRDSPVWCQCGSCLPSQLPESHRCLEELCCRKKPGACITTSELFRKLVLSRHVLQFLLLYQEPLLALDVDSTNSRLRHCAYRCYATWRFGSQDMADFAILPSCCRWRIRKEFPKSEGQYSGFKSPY
Put plainly: P2X7 calcium mobilization assay, high throughput, antagonist activity (Example 4A). In kind it is cell-based. As to conditions: P2X7 calcium mobilization, Example 4A; 50% decrease in the fluorescence response of cells exposed to 80 μM of (2′(3′)-O-(4-benzoyl-benzoyl)adenosine 5′-triphosephate); read-out: IC50. An outline of the steps:
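Cells plated at 100,000/well the day before were dye-loaded for 1 h, then incubated 1 h at room temperature with test compound before agonist-triggered calcium mobilization was read on FLIPR Tetra. Maximum RFU was corrected by subtracting the no-agonist control and related to the agonist-control response.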

As a reminder, the pIC50 is the IC50 on a negative log10 scale, so that one unit is a factor of ten. Turning to `O=C(NCC(c1ccc(C(F)(F)F)nc1)N1CCCCC1)c1cccc2ncc(Cl)n12` (stereo not shown) [Compound 1058, 3-chloro-N-{2-piperidin-1-yl-2-[6-(trifluoromethyl)pyridin-3-yl]ethyl}imidazo[1,2-a]pyridine-5-carboxamide], the pIC50 is greater than 5.70.
Then `CCN(Cc1cn2c(C(=O)NCC34CC5CC(CC(C5)C3)C4)cccc2n1)C(=O)OC(C)OC(C)=O` (stereo not shown) [Compound 1059, 1-{[({5-[(adamantan-1-ylmethyl)carbamoyl]imidazo [1,2-a]pyridin-2-yl}methyl)(ethyl)carbamoyl]oxy} ethyl acetate], with greater than 5.70; and `CC(=O)OC(C)OC(=O)N[C@@H]1CCCN(C(=O)Cc2cn3c(C(=O)NCC45CC6CC(CC(C6)C4)C5)cccc3n2)C1` (stereo partly drawn) [Compound 1060, 1-({[(3R)-1-({5-[(adamantan-1-ylmethyl)carbamoyl]imidazo[1,2-a]pyridin-2-yl}acetyl)piperidin-3-yl]carbamoyl}oxy)ethyl acetate], with greater than 5.70; and `CCOC(=O)c1cn2cc(C(=O)NCC34CC5CC(CC(C5)C3)C4)ccc2n1` [Compound 1061, ethyl 6-[(adamantan-1-ylmethyl)carbamoyl] imidazo [1,2-a]pyridine-2-carboxylate], with greater than 5.70.
As for `O=C(NCC12CC3CC(CC(C3)C1)C2)c1ccc2nc(CCl)cn2c1` [Compound 1062, N-(adamantan-1-ylmethyl)-2-(chloromethyl) imidazo [1,2-a]pyridine-6-carboxamide], the pIC50 was greater than 5.70.
For the compound `CCOC(=O)Cc1cn2cc(C(=O)NCC34CC5CC(CC(C5)C3)C4)ccc2n1` [Compound 1063, ethyl {6-[(adamantan-1-ylmethyl)carbamoyl]imidazo[1,2-a]pyridin-2-yl} acetate], the pIC50 was greater than 5.70.
On to `O=C(NCC12CC3CC(CC(C3)C1)C2)c1ccn2cc(CCl)nc2c1` [Compound 1064, N-(adamantan-1-ylmethyl)-2-(chloromethyl)imidazo [1,2-a]pyridine-7-carboxamide], for which the negative-log IC50 (pIC50) is greater than 5.70.
